Laboratory results: PMC5750218, “Protein-inspired antibiotics active against vancomycin- and daptomycin-resistant bacteria” (Nature Communications, 2018)
Converted amounts (≈) assume the structure as drawn. Read-outs that look alike come from different tables or passages of the source.

How the values were obtained:
[1] = test system: Methicillin-resistant S. aureus ATCC 43300; test: microbe, parasite or virus in culture; settings: for MIC MRSA: ATCC 43300, 24 h
Procedure, shortened: (§1)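 MICs were determined by broth microdilution in Mueller Hinton broth. Bacteria were pregrown overnight, diluted 40-fold and regrown 2–3 h at 37 °C.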

[2] = test system: Vancomycin-resistant S. aureus NARSA VRS4; test: microbe, parasite or virus in culture; assay type: cell-based, Staphylococcus aureus; settings: for MIC VRSA: Vancomycin-resistant NARSA VRS4
[3] = test system: Multi-drug-resistant S. pneumoniae ATCC 700677; test: microbe, parasite or virus in culture; settings: for MIC MDR S.P.: ATCC 700677
Procedure, shortened: as §1

[4] = test system: Vancomycin-intermediate S. aureus NRS1; test: microbe, parasite or virus in culture; settings: for MIC VISA: Vancomycin-intermediate NRS1
Procedure, shortened: as §1

[5] = test system: Vancomycin-resistant (VanA) Enterococcus faecium ATCC 51559; test: microbe, parasite or virus in culture; settings: for MIC VRE: ATCC 51559
Procedure, shortened: as §1

[6] = test system: S. aureus ATCC 43300 MRSA; test: microbe, parasite or virus in culture; assay type: cell-based, Staphylococcus aureus; settings: Staphylococcus aureus, 24 h
Method: (§2) The compounds, along with standard antibiotics were serially diluted twofold across the wells of 96-well non-binding surface (NBS) polystyrene plates (Corning 3641). […] Standards ranged from 64 to 0.03 µg mL^−1 and compounds from 8 to 0.003 µg mL^−1 with final assay volumes of 100 µL per well. Gram-positive bacteria were cultured in Mueller Hinton broth (MHB) (Bactolaboratories, Cat. no. 211443) at 37 °C overnight. A sample of each culture was then diluted 40-fold in fresh MHB and incubated at 37 °C for 2–3 h. The resultant mid-log phase cultures were added to the compound-containing 96-well plates to give a final cell density of 5 × 10^5 colony forming unit (CFU) mL^−1. All the plates were covered and incubated at 37 °C for 24 h. MICs were the lowest concentration showing no visible growth.

[7] = test system: S. pneumoniae ATCC 33400; test: microbe, parasite or virus in culture; assay type: cell-based, Streptococcus pneumoniae; settings: Streptococcus pneumoniae, ATCC33400, 24 h
Method: as §2

[8] = test system: S. pneumoniae ATCC 700677 MDR; test: microbe, parasite or virus in culture; assay type: cell-based, Streptococcus pneumoniae; settings: Streptococcus pneumoniae, ATCC700677, 24 h
Method: as §2

[9] = Cytotoxicity MTT assay; assay type: cell-based, human; settings: human
Method: Compound cytotoxicity was evaluated against HepG2 (ATCC-®HB-8065 liver hepatoceullular carcinoma) and HEK293 (ATCC®CRL-1573, embryonic kidney) human cell lines using standard (3-(4,5-dimethylthiazol-2-yl)−2,5-diphenyltetrazolium bromide (MTT) assay protocol with slight changes. In brief, HepG2 and HEK293 cells (assessed annually for mycoplasma contamination) were seeded as 1.5 × 10^4 cells per well in a clear 96-well tissue culture treated plate in a final volume of 100 μL in Dulbecco’s Modified Eagle Medium (DMEM)(GIBCO-Invitrogen #11995-073), in which 1% of FBS was added. Cells were incubated for 24 h at 37 °C, 5% CO2 to allow cells to attach to the plates. […] After the incubation, 0.4 mg mL^−1 MTT (3-(4,5-dimethylthiazol-2-yl)−2,5-diphenyltetrazolium bromide) (Invitrogen) was added to each well. The plates were then incubated for 2 h at 37 °C, 5% CO2. The media was removed, and purple formazan crystals were resuspended in 60 μL of DMSO. The absorbance was read at 570 nm using a Polarstar Omega plate reader. The data was then analysed by Prism software. Results are presented as the average percentage of control ± S.D. for each set of duplicate wells using the following equation: percent viability = (ABSTEST – ABSPOSITIVE CTRL / ABSUNTREATED –ABS POSITIVE CTRL)×100.

[10] = Cytotoxicity MTT assay; assay type: cell-based, human; settings: human; remark: listed apart in the source
Method: Compound cytotoxicity was evaluated against HepG2 (ATCC-®HB-8065 liver hepatoceullular carcinoma) and HEK293 (ATCC®CRL-1573, embryonic kidney) human cell lines using standard (3-(4,5-dimethylthiazol-2-yl)−2,5-diphenyltetrazolium bromide (MTT) assay protocol with slight changes. In brief, HepG2 and HEK293 cells (assessed annually for mycoplasma contamination) were seeded as 1.5 × 10^4 cells per well in a clear 96-well tissue culture treated plate in a final volume of 100 μL in Dulbecco’s Modified Eagle Medium (DMEM)(GIBCO-Invitrogen #11995-073), in which 1% of FBS was added. Cells were incubated for 24 h at 37 °C, 5% CO2 to allow cells to attach to the plates. Compounds prepared at 100 µM to 0.046 µM in threefold dilutions were added into each well and incubated for 24 h at 37 °C, 5% CO2. After the incubation, 0.4 mg mL^−1 MTT (3-(4,5-dimethylthiazol-2-yl)−2,5-diphenyltetrazolium bromide) (Invitrogen) was added to each well. The plates were then incubated for 2 h at 37 °C, 5% CO2. The media was removed, and purple formazan crystals were resuspended in 60 μL of DMSO. The absorbance was read at 570 nm using a Polarstar Omega plate reader. The data was then analysed by Prism software. Results are presented as the average percentage of control ± S.D. for each set of duplicate wells using the following equation: percent viability = (ABSTEST – ABSPOSITIVE CTRL / ABSUNTREATED –ABS POSITIVE CTRL)×100.

[11] = Haemolysis assay; assay type: cell-based; settings: human, whole blood
Method: Haemolytic activity was measured as previously described with slight modifications, [45]. Fresh human venal blood was collected from healthy volunteers and pretreated with the anticoagulant sodium citrate. Serial twofold dilutions of each antibiotic, dissolved in 0.9% NaCl solution, were added to fresh human whole blood (50% final, vol:vol) to the final volume of 80 μL and incubated at 37 °C for 3 h on a horizontal shaker at 200 rpm. For negative and positive controls, human whole blood in 0.9% NaCl solution (A blank) and in sdH2O (A water) were used, respectively. After incubation, both test and A blank were mixed with 1 mL 0.9% NaCl solution, or sdH2O for the complete […] A water. After centrifugation of samples at 2500 rpm (700 × g) for 5 min, the release of haemoglobin was monitored by measuring the absorbance (A sample) of the supernatant at 540 nm using BMG Labtech PolarStar Omega multimode reader. The percentage of haemolysis was calculated according to the equation: %haemolysis=Asample-Ablank∕Awater-Ablank×100

Structure (SMILES)	MIC MRSA [1] [µg/mL]	MIC VRSA [2] [µg/mL]	MIC MDR S.P. [3] [µg/mL]	MIC VISA [4] [µg/mL]	MIC VRE [5] [µg/mL]	CC50 at 24 h [9] [µM]	CC50 at 24 h [10] [µM]	also measured
CCCCCCCCCCNCCN[C@@]1(C)C[C@H](O[C@H]2[C@H](Oc3c4cc5cc3Oc3ccc(cc3Cl)[C@@H](O)[C@@H](NC(=O)[C@@H](CC(C)C)NC)C(=O)N[C@@H](CC(N)=O)C(=O)N[C@H]5C(=O)N[C@H]3C(=O)N[C@H](C(=O)N[C@H](C(=O)O)c5cc(O)c(CNCP(=O)(O)O)c(O)c5-c5cc3ccc5O)[C@H](O)c3ccc(c(Cl)c3)O4)O[C@H](CO)[C@@H](O)[C@@H]2O)O[C@@H](C)[C@H]1O [Compound 2, Telavancin]	–	–	–	–	–	–	–	MIC ([1]; Staphylococcus aureus, ATCC43300|MRSA, 24 h, read-out: MIC MRSA, S. aureus ATCC 43300, NBS plates, MHB, 24 h, substance alone): 0.03 µg/mL (≈ 0.0171 µM); MIC ([2]; Staphylococcus aureus, VRSA, read-out: MIC VRSA): 1 µg/mL (≈ 0.57 µM); MIC ([3]; Streptococcus pneumoniae, ATCC700677, read-out: MIC MDR S.P.): 0.06 µg/mL (≈ 0.0342 µM); MIC ([4]; Staphylococcus aureus, NRS1 / VISA, read-out: MIC VISA): 0.25 µg/mL (≈ 0.142 µM); MIC ([5]; Enterococcus faecium, ATCC51559 / VRE, read-out: MIC VRE): 2 µg/mL (≈ 1.14 µM); MIC ([6]; read-out: MIC S. aureus ATCC 43300 MRSA, 1% Survanta): 0.126 µg/mL (≈ 0.0715 µM); MIC ([6]; read-out: MIC S. aureus ATCC 43300 MRSA, 5% Survanta): 0.25 to 0.5 µg/mL (≈ 0.142 to 0.285 µM); MIC ([6]; read-out: MIC S. aureus ATCC 43300 MRSA, no added Survanta): 0.125 µg/mL (≈ 0.0712 µM); MIC ([7]; read-out: MIC S. pneumoniae ATCC 33400, 1% Survanta): 0.25 µg/mL (≈ 0.142 µM); MIC ([7]; read-out: MIC S. pneumoniae ATCC 33400, 5% Survanta): 0.5 µg/mL (≈ 0.285 µM); MIC ([7]; read-out: MIC S. pneumoniae ATCC 33400, no added Survanta): 0.125 to 0.25 µg/mL (≈ 0.0712 to 0.142 µM); MIC ([8]; read-out: MIC S. pneumoniae ATCC 700677 MDR, 1% Survanta): 0.06 to 0.125 µg/mL (≈ 0.0342 to 0.0712 µM); MIC ([8]; read-out: MIC S. pneumoniae ATCC 700677 MDR, 5% Survanta): 0.25 µg/mL (≈ 0.142 µM); MIC ([8]; read-out: MIC S. pneumoniae ATCC 700677 MDR, no added Survanta): 0.06 to 0.125 µg/mL (≈ 0.0342 to 0.0712 µM); CC50 at 24 h ([9]; 24 h, MTT, 1% FBS, read-out: Cytotoxicity CC50 HepG2): > 100 µM; CC50 at 24 h ([10]; 24 h, MTT, 1% FBS, read-out: Cytotoxicity CC50 HEK293): > 100 µM
CCCCCCCCCCC(=O)N[C@@H](CCCCN)C(=O)N[C@@H](CCCCN)C(=O)N[C@@H](CCCCNC(=O)[C@H]1NC(=O)[C@H]2NC(=O)[C@H](NC(=O)[C@@H]3NC(=O)[C@H](CC(N)=O)NC(=O)[C@H](NC(=O)[C@@H](CC(C)C)NC)[C@H](O)c4ccc(c(Cl)c4)Oc4cc3cc(c4O[C@@H]3O[C@H](CO)[C@@H](O)[C@H](O)[C@H]3O[C@H]3C[C@](C)(N)[C@H](O)[C@H](C)O3)Oc3ccc(cc3Cl)[C@H]2O)c2ccc(O)c(c2)-c2c(O)cc(O)cc21)C(=O)NC [Compound 22, nC10CO-KK-K(Vancomycin)-NHMe]	0.015 (≈ 0.00744 µM)	0.5 (≈ 0.248 µM)	0.015 (≈ 0.00744 µM)	0.125 (≈ 0.062 µM)	4 (≈ 1.98 µM)	80	47	hemolysis at 3 h ([11]; 100 µg mL-1): 1.9%; hemolysis at 3 h ([11]; 1600 µg mL-1): 2.7%
CN[C@H](CC(C)C)C(=O)N[C@H]1C(=O)N[C@@H](CC(N)=O)C(=O)N[C@H]2C(=O)N[C@H]3C(=O)N[C@H](C(=O)N[C@H](C(=O)NCCCC[C@H](NC(=O)[C@H](CCCCN)NC(=O)[C@H](CCCCN)NC(C)=O)C(=O)O)c4cc(O)cc(O)c4-c4cc3ccc4O)[C@H](O)c3ccc(c(Cl)c3)Oc3cc2cc(c3O[C@@H]2O[C@H](CO)[C@@H](O)[C@H](O)[C@H]2O[C@H]2C[C@](C)(N)[C@H](O)[C@H](C)O2)Oc2ccc(cc2Cl)[C@H]1O [Compound 25, Ac-KK-K(Vancomycin)-OH]	–	>8	–	–	–	> 500	> 500	–
CCCCCCCCCC(=O)N[C@@H](CCCCN)C(=O)N[C@@H](CCCCN)C(=O)N[C@@H](CCCCN)C(=O)N[C@@H](CCCCNC(=O)[C@H]1NC(=O)[C@H]2NC(=O)[C@H](NC(=O)[C@@H]3NC(=O)[C@H](CC(N)=O)NC(=O)[C@H](NC(=O)[C@@H](CC(C)C)NC)[C@H](O)c4ccc(c(Cl)c4)Oc4cc3cc(c4O[C@@H]3O[C@H](CO)[C@@H](O)[C@H](O)[C@H]3O[C@H]3C[C@](C)(N)[C@H](O)[C@H](C)O3)Oc3ccc(cc3Cl)[C@H]2O)c2ccc(O)c(c2)-c2c(O)cc(O)cc21)C(=O)O [Compound 36, nC9CO-KKK-K(Vancomycin)-OH]	0.06 (≈ 0.0284 µM)	0.75 (≈ 0.354 µM)	0.06 (≈ 0.0284 µM)	0.75 (≈ 0.354 µM)	8 (≈ 3.78 µM)	–	–	–
CCCCCCCCCCCC(=O)N[C@@H](CCCCN)C(=O)N[C@@H](CCCCN)C(=O)N[C@@H](CCCCN)C(=O)N[C@@H](CCCCNC(=O)[C@H]1NC(=O)[C@H]2NC(=O)[C@H](NC(=O)[C@@H]3NC(=O)[C@H](CC(N)=O)NC(=O)[C@H](NC(=O)[C@@H](CC(C)C)NC)[C@H](O)c4ccc(c(Cl)c4)Oc4cc3cc(c4O[C@@H]3O[C@H](CO)[C@@H](O)[C@H](O)[C@H]3O[C@H]3C[C@](C)(N)[C@H](O)[C@H](C)O3)Oc3ccc(cc3Cl)[C@H]2O)c2ccc(O)c(c2)-c2c(O)cc(O)cc21)C(=O)O [Compound 37, nC11CO-KKK-K(Vancomycin)-OH]	0.005 (≈ 0.00233 µM)	0.75 (≈ 0.35 µM)	<0.003	0.06 (≈ 0.028 µM)	0.5 (≈ 0.233 µM)	–	–	–
